Laboratory results reported in PubChem BioAssay AID608 (Sanford-Burnham Center for Chemical Genomics, 2007).
Calls of active or inactive are those of the source. No rule for the calls is given here. Where a SMILES comes first, the peptide text is derived from it.

biological target: Peptidyl-prolyl cis-trans isomerase FKBP1A (Homo sapiens) (UniProt P62942); assay: small-molecule binding to FKBP12 – biophysical, NMR detection (AID 608); settings: purified FKBP12
Sequence (P62942 whole entry, looked up): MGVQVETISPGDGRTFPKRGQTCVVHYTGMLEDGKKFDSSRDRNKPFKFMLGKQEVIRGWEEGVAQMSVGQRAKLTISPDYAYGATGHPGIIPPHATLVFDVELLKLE

| SMILES | Kd |
| --- | --- |
| O=C(NCc1ccncc1)c1cccc(F)c1 | inactive |
| O=c1[nH]c(=O)c2[nH]cnc2[nH]1 | > 4 mM (inactive) |
| CS(=O)(=O)N/N=C/c1cccs1 | > 4 mM (inactive) |
| COc1c(O)cc2c(c1O)[C@H]1O[C@H](CO)[C@@H](O)[C@H](O)[C@@H]1OC2=O | > 4 mM (inactive) |
| CC(C)c1c(O)ccc2c1CCC1C(C)(C)CCC[C@]21C (stereo not given in full) | > 4 mM (inactive) |
| C[C@]12CC(=O)C3C(CC[C@@H]4C[C@H](O)CC[C@]34C)C1CC[C@]2(O)C(=O)CO (stereo not given in full) | > 4 mM (inactive) |
| c1ccc(-c2n[nH]c(-c3ccccn3)n2)nc1 | > 4 mM (inactive) |
| CN(Cc1nc2ccccc2n1C)C(=O)c1cccs1 | > 4 mM (inactive) |
| O=C(NCO)c1ccc([N+](=O)[O-])cc1 | > 4 mM (inactive) |
| N#Cc1cc2c(nc1SCc1ccncc1)CCC2 | > 4 mM (inactive) |
| O=C1CSC2(CN3CCC2CC3)N1 (stereo not given) | > 4 mM (inactive) |
| CC(=O)O[C@@H]1CC2C(C)(C)C(=O)C=C[C@]2(C)C2CC[C@]3(C)C(=CC(=O)O[C@H]3c3ccoc3)[C@@]21C (stereo not given in full) | > 4 mM (inactive) |
| OCc1cc(-c2cccs2)on1 | > 4 mM (inactive) |
| COc1ccc(C(N)=O)cc1NC(C)=O | > 4 mM (inactive) |
| O=C1CC(c2c[nH]c3ccccc23)C(=O)N1 (stereo not given) | > 4 mM (inactive) |
| S=C(c1cccnc1)N1CCOCC1 | > 4 mM (inactive) |
| OCc1nccn1Cc1ccccc1 | > 4 mM (inactive) |
| O=C(NCc1n[nH]c(=O)c2ccccc12)C1CC1 | > 4 mM (inactive) |
| NC(=O)c1cc(N)ccc1N1CCCCC1 | > 4 mM (inactive) |
| CN1CCC(NC(=O)Cc2c(F)cccc2Cl)CC1 | > 4 mM (inactive) |

| SMILES | Kd |
| --- | --- |
| CCCCN1C(=O)N(C)C2NC(=O)NC21 (stereo not given) | > 4 mM (inactive) |
| O=[N+]([O-])c1ccc2c(c1)N([O-])C1(CCCCC1)[N+]2=O | > 4 mM (inactive) |
| COC(=O)[C@@]1(C)CCC[C@]2(C)c3ccc(O)c(C(C)C)c3CCC12 (stereo not given in full) | > 4 mM (inactive) |
| C[C@]12CCC3C(CC[C@]4(O)C[C@@H](O)CC[C@]34C=O)[C@@]1(O)CCC2C1=CC(=O)OC1 (stereo not given in full) | > 4 mM (inactive) |
| O=S1(=O)CCC(NCc2ccccc2)C1 (stereo not given) | > 4 mM (inactive) |
| Cc1ccc(-c2nn(C)c(=O)c3ccccc23)cc1CO | > 4 mM (inactive) |
| COCCn1cnc2cc(C)c(C)cc21 | > 4 mM (inactive) |
| Cn1ccc(NC(=S)NC2CCCC2)n1 | > 4 mM (inactive) |
| NC(=O)CSCc1c(Cl)cccc1Cl | > 4 mM (inactive) |
| CN1CCC(NC(=O)C2CCCO2)CC1 (stereo not given) | > 4 mM (inactive) |
| COC(=O)Nc1c(C)n(C)n(-c2ccccc2)c1=O | > 4 mM (inactive) |
| CC1CN(C(=O)c2ccncc2)CC(C)O1 (stereo not given) | > 4 mM (inactive) |
| CC1=[N+]([O-])C2(N)CCc3c(no[n+]3[O-])C2(O)C1 (stereo not given) | > 4 mM (inactive) |
| CSc1nnc(CN2CCSCC2)n1C | > 4 mM (inactive) |
| Nc1cccc(C(=O)c2ccccc2)c1 | > 4 mM (inactive) |
| NCCNC(=S)Nc1ccccc1 | > 4 mM (inactive) |
| O=C(Nc1nnc(C(F)(F)F)s1)c1cccnc1 | > 4 mM (inactive) |
| Cc1cc(=O)[nH]c(N)n1 | > 4 mM (inactive) |
| COCC(=O)N1CCCc2ccccc21 | > 4 mM (inactive) |
| NC(=NCCC[C@H](N)C(=O)O)NC(CCC(=O)O)C(=O)O (stereo not given in full) | > 4 mM (inactive) |

| SMILES | Kd |
| --- | --- |
| CC(=O)N[C@@H](CC(=O)O)C(=O)N[C@@H](CCC(=O)O)C(=O)O (Ac-Asp-Glu-OH) | > 4 mM (inactive) |
| Cc1ccc(NS(=O)(=O)N2CCCCC2)c(C)c1 | 0.436 mM |
| CN1CCN(CC(=O)Nc2ccccc2)CC1 | > 4 mM (inactive) |
| Oc1ccccc1-c1nnco1 | > 4 mM (inactive) |
| CC(=O)Nn1cc2c(=O)n(C)c(=O)n(C)c2c1 | > 4 mM (inactive) |
| CCN1C[C@@]2(COC)C3[C@@H](OC)[C@H]4[C@@H]1[C@]3(C(OC)C[C@H]2O)C1C[C@@]2(O)[C@H](OC(=O)c3ccccc3)C1[C@]4(OC(C)=O)[C@@H](O)[C@@H]2OC (stereo not given in full) | > 4 mM (inactive) |
| COC(=O)[C@@H]1CCCCN1C(=O)C(=O)c1cc(OC)c(OC)c(OC)c1 | 0.003 mM |
| CCOC(=O)c1nc2ccccc2c(=O)n1N | > 4 mM (inactive) |
| CN=C(c1ccc([N+](=O)[O-])cc1)N(C)C | > 4 mM (inactive) |
| Cc1cc(C)n(-c2nncn2N)n1 | > 4 mM (inactive) |
| O=CN1CCN(C(=O)c2ccccc2Cl)CC1 | > 4 mM (inactive) |
| O=C(Nc1ccon1)c1csc2ccccc12 | > 4 mM (inactive) |
| CSc1ccccc1NC(=O)c1ccoc1C | > 4 mM (inactive) |
| COc1cc(C2NC(=S)NC(C)=C2C(C)=O)ccc1O (stereo not given) | > 4 mM (inactive) |
| O=C(O)C1(S(=O)(=O)c2ccccc2)CC1 | > 4 mM (inactive) |
| CC1(C)CC23C(=O)CCC(O)C2(C)CCC13 (stereo not given) | > 4 mM (inactive) |
| CSc1nc(-c2ccccc2)ccc1C(N)=O | > 4 mM (inactive) |
| O=C(O)CC1C(=O)NCCN1Cc1ccccc1 (stereo not given) | > 4 mM (inactive) |
| CSc1nc2nc(C)cc(=O)n2[nH]1 | > 4 mM (inactive) |
| Cc1occc1C(=O)NC1CCN(C)CC1 | > 4 mM (inactive) |
